Reference: patent US12576051B2, “Methods and composition for treating respiratory obstructive diseases” (The Regents of the University of California, priority 2019, dated 2026)
Structures can show the parent of a compound that is named as a salt.

B1: rhDNase: recombinant human DNase, an enzyme that breaks down extracellular DNA in mucus (protein, UniProt P24855 23-282, looked up)
Deoxyribonuclease-1: LKIAAFNIQTFGETKMSNATLVSYIVQILSRYDIALVQEVRDSHLTAVGKLLDNLNQDAPDTYHYVVSEPLGRNSYKERYLFVYRPDQVSAVDSYYYDDGCEPCGNDTFNREPAIVRFFSRFTEVREFAIVPLHAAPGDAVAEIDALYDVYLDVQEKWGLEDVMLMGDFNAGCSYVRPSQWSSIRLWTSPTFQWLIPDSADTTATPTHCAYDRIVVAGMLLRGAVVPDSALPFNFQAAYGLSDQLAQAISDHYPVEVMLK

Key:
[1] = cited from earlier work
[2] = test system: Muc5ac mucin from porcine airway mucus; experiment: Mucolytic effect on Muc5ac mucin from porcine airway mucus (western blot, densitometry); format: biochemical; settings: 2 mM, 30 mins at 37° C.; compound preincubated in HCO3-Ringer, HCO3-Ringer/acetic acid or acetate buffer pH 4.5
Protocol: (§1) (Upper panel) Identification of Muc5ac mucin (black arrow) by western blot, from airway mucus sample collected in HCO3-Ringer and treated with or without 2 mM of compound 646 for 30 mins at 37° C. Lane CTRL, untreated sample as control. Lane Bic, sample treated with compound preincubated in HCO3-Ringer; lane Bic/Ac, sample treated with compound preincubated with 1:1 HCO3-Ringer/Acetic acid 0.1N; lane Ac, sample treated with compound preincubated in acetate buffer 1M, pH 4.5. Lower panel, densitometric analysis of the protein bands identified with the Muc5ac mucin antibody. Densitometric signal of the sample control (CTRL) was normalized as 100% (% arbitrary units).
as §1, with “647” for “646”, “4.5, as described under Methods.” for “4.5.”, “units). Control is pH 8, Bic 7.4, Bic/AC 6.9 AND AC 6.2” for “units).”
as §1, with “655” for “646”
as §1, with “compounds 656” for “compound 646”

[3] = test system: respiratory secreted mucus; experiment: Mucolytic activity on respiratory secreted mucus of open porcine trachea sections (alcian blue); settings: 2 mM, HCO3-Ringer with PGE2 (1 uM) and alcian blue (0.02%), 10 minutes at 37° C., untreated showed clusters of secreted mucus
Protocol: (§2) FIG. 16 provides the mucolytic activity of compounds 646 and 647 on respiratory secreted mucus. Small sections of open porcine trachea (˜2 cm^2) were covered with HCO3-Ringer solution ([…]) containing PGE2 (1 uM) and alcian blue (0.02%), with or without compounds at a 2 mM final concentration, and then incubated for 10 minutes at 37° C.
as §2, with “17” for “16”, “655” for “646”, “656” for “647”

secreted Muc5ac mucin = experiment: Mucolytic activity on secreted Muc5ac mucin of open porcine trachea sections (western blot); settings: for breaking down the mucus (secreted Muc5ac western blot) / native Muc5ac levels on epithelial luminal surfaces (immunoblot): 2 mM; for breaking down the mucus (secreted Muc5ac western blot): 5 minutes at 37° C., then 7% NaCl inhaled solution 5 mins, FIG. 19; for native Muc5ac levels on epithelial luminal surfaces (immunoblot): HCO3-Ringer with PGE2 (1 uM), 10 minutes at 37° C., FIG. 18
Protocol: FIG. 18 provides the mucolytic activity of compounds on secreted Muc5ac mucin. Epithelial luminal surface of open porcine trachea sections (˜2 cm^2) were covered with HCO3-Ringer solution ([…]) containing PGE2 (1 uM), and alcian blue (0.02%), with or without compounds at a 2 mM final concentration, and incubated for 10 minutes at 37° C. Equal volumes of each collected sample were separated on vertical electrophoresis, and then transfer to an immobilon-P membrane for western blot analysis. […] Densitometric signal of the untreated sample, as control, was normalized to 100% (% arbitrary units).
Epithelial luminal surface of open porcine trachea sections (˜2 cm^2) were covered with […] of HCO3-Ringer solution containing PGE2 (1 uM), in the presence or absence of compounds at a 2 mM final concentration, and incubated for 5 minutes at 37° C. Afterwards, […] of sterile 7% NaCl inhaled solution was added and incubated for another 5 mins at 37° C. Equal volumes of each collected sample were separated on vertical electrophoresis, and then transferred to an immobilon-P membrane for western blot analysis. […] Densitometric signal of the non-treated sample, as control, was normalized to 100% (% arbitrary units).

porcine airway = experiment: Ex vivo porcine airway models (summary statement)
From the text: Abnormal mucus accumulation in airways has deleterious, and fatal consequence in patients suffering from respiratory obstructive diseases, such as cystic fibrosis (CF), COPD and asthma. Therefore, there is a need for therapies aimed at decreasing mucus accumulation to facilitate airway mucus clearance.

Molecule | influence of acidic and basic conditions on mucolytic activity on porcine Muc5ac mucin [2] | native Muc5ac levels on epithelial luminal surfaces (immunoblot) (secreted Muc5ac mucin) | accumulation of viscous mucus and mucociliary clearance (porcine airway) | also measured
CC(C)(C)c1cc(C(C)(C)C)c(NC(=O)c2c[nH]c3ccccc3c2=O)cc1O [Ivacaftor, reference compound] |  |  |  | improvement of lung function ([1]; taken by mouth, CF with ivacaftor-responsive mutations): about 10%
Cl.Cl.[2H]C([2H])(CN)SSC([2H])([2H])CN [Compound 655, 2,2′-disulfanediylbis(ethan-2,2-d2-1-aminium) chloride] | enhanced under acidic conditions | decreased native Muc5ac levels | prevented accumulation of viscous mucus and improves mucociliary clearance | appearance of secreted mucus on trachea sections [3]: dispersed secreted mucus; breaking down the mucus (secreted Muc5ac western blot) (secreted Muc5ac mucin): consistently works well in breaking down the mucus; mucolytic activity in comparison (secreted Muc5ac mucin; comparison between deuterated cystamine compounds): better mucolytic activity than Compound 647
CC(=O)N[C@@H](CS)C(=O)O [NAC, N-acetylcysteine, reference compound] |  |  |  | efficacy with respect to improvement of lung function or reduction in pulmonary exacerbations ([1]; inhaled, CF and COPD): do not support the efficacy
Cl.[2H]C([2H])(S)CN [Compound 656, 2-mercaptoethan-2,2-d2-1-aminium chloride] | enhanced under acidic conditions | decreased native Muc5ac levels | prevented accumulation of viscous mucus and improves mucociliary clearance | appearance of secreted mucus on trachea sections [3]: dispersed secreted mucus
[2H]C(CN)SSC([2H])CN (stereo not drawn) [Compound 647, 2,2′-disulfanediylbis(ethan-2-d-1-amine) dihydrochloride] | enhanced under acidic conditions | decreased native Muc5ac levels | prevented accumulation of viscous mucus and improves mucociliary clearance | appearance of secreted mucus on trachea sections ([3]; dihydrochloride): dispersed clusters of secreted mucus; breaking down the mucus (secreted Muc5ac western blot) (secreted Muc5ac mucin): consistently works well in breaking down the mucus
NCCSSCCN [cystamine, reference compound] |  |  | prevented accumulation of viscous mucus and improves mucociliary clearance | 
B1 |  |  |  | clinical benefit ([1]; inhaled, adult CF subjects): substantial clinical benefits; efficacy ([1]; obstructive diseases other than CF): ineffective
